Values quoted from earlier work, collected in patent US6579860B1, “Interleukin-6 production inhibitors” (Toray Industries, Inc., priority 1998, dated 2003).

tested on: mouse macrophage cells; details: Pannanen N. et al., Pharmaceutical Research 12(6)

| SMILES | effect on cytokine production/release |
| --- | --- |
| O=P(O)(O)C(Cl)(Cl)P(=O)(O)O [clodronate] | suppresses cytokine production |
| CC(O)(P(=O)(O)O)P(=O)(O)O [etidronate] | does not have such an effect |
| NCCC(O)(P(=O)(O)O)P(=O)(O)O [pamidronate] | enhances release of cytokine |
